Patent publication US6004950A, “2-aminopyridines as inhibitors of cyclooxygenase-2” (Merck Frosst Canada, Inc., priority 1998, dated 1999)

Key:
[1] = target: T1, COX-1 (Homo sapiens, UniProt P23219); experiment: Human whole blood assay, COX-1 (clotting-induced TxB2 production); format: cell-based; design: platelets in whole blood contain a large amount of the COX-1 enzyme; endogenous in cells; host or cells: fresh human whole blood without anticoagulant (platelets), clotted 1 h at 37° C; details: clotting-induced TxB2, 1 h, read-out: COX-1 (IC50 mM) HWB
T1 sequence (P23219 24-599): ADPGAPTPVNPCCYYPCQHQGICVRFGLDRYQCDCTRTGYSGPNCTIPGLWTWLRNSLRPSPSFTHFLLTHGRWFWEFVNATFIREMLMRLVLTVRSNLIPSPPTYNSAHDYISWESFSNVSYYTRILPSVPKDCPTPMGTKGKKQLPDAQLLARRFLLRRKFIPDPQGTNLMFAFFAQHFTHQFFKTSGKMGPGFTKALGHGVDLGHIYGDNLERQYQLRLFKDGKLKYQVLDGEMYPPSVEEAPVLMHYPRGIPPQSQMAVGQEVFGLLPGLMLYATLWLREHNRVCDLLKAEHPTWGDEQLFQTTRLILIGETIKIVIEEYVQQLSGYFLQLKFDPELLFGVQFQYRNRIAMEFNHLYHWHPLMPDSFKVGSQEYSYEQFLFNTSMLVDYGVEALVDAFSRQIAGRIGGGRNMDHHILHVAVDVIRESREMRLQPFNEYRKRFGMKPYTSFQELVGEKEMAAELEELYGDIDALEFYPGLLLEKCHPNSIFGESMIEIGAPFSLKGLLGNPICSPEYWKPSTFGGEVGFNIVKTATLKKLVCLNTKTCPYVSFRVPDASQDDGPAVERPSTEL
Description: Human whole blood provides a protein and cell-rich milieu appropriate for the study of biochemical efficacy of anti-inflammatory compounds such as selective COX-2 inhibitors. […] This is consistent with the observation that COX-2 inhibitors have no effect on PGE2 production in normal blood. These inhibitors are active only after incubation of human whole blood with LPS, which induces COX-2. This assay can be used to evaluate the inhibitory effect of selective COX-2 inhibitors on PGE2 production. As well, platelets in whole blood contain a large amount of the COX-1 enzyme. Immediately following blood clotting, platelets are activated through a thrombin-mediated mechanism. This reaction results in the production of thromboxane B2 (TxB2) via activation of COX-1. Thus, the effect of test compounds on TxB2 levels following blood clotting can be examined and used as an index for COX-1 activity. Therefore, the degree of selectivity by the test compound can be determined by measuring the levels of PGE2 after LPS induction (COX-2) and TxB2 following blood clotting (COX-1) in the same assay.
B. COX-1 (Clotting-induced TxB2 production)
Fresh blood is collected into vacutainers containing no anticoagulants. […] The tubes are vortexed and incubated at 37° C. for 1 hour to allow blood to clot. At the end of incubation, serum is obtained by centrifugation (12,000×g for 5 min.). […]

[2] = target: T2, COX-2 (Homo sapiens, UniProt P35354); experiment: Human whole blood assay, COX-2 (LPS-induced PGE2 production); format: cell-based; details: human whole blood, LPS-induced PGE2, 24 h; read-out: COX-2 (IC50 mM) HWB
T2 construct: incubation of human whole blood with LPS, which induces COX-2; endogenous in cells; host or cells: heparinized fresh whole blood of human volunteers, incubated with LPS for 24 h
T2 sequence (P35354 18-604): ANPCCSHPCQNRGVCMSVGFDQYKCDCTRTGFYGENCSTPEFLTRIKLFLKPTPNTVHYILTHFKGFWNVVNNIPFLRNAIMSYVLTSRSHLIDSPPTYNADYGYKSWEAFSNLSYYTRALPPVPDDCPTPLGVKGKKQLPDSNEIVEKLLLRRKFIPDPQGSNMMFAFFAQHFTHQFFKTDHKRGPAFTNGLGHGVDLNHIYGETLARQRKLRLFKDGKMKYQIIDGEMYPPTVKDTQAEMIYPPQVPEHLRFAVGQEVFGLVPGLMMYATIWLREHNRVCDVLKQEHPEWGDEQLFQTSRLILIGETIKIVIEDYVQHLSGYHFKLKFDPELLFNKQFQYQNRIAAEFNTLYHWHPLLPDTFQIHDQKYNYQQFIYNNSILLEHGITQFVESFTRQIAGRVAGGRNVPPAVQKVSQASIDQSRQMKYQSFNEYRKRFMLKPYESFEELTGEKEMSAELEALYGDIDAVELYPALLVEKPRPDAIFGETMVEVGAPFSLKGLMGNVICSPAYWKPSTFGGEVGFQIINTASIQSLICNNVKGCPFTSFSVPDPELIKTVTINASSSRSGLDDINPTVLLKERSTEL
Source text: As well, platelets in whole blood contain a large amount of the COX-1 enzyme. Immediately following blood clotting, platelets are activated through a thrombin-mediated mechanism. This reaction results in the production of thromboxane B2 (TxB2) via activation of COX-1. Thus, the effect of test compounds on TxB2 levels following blood clotting can be examined and used as an index for COX-1 activity. Therefore, the degree of selectivity by the test compound can be determined by measuring the levels of PGE2 after LPS induction (COX-2) and TxB2 following blood clotting (COX-1) in the same assay.
A. COX-2 (LPS-induced PGE2 production)
Fresh blood is collected in heparinized tubes by venipuncture from both male and female volunteers. The subjects have no apparent inflammatory conditions and have not taken any NSAIDs for at least 7 days prior to blood collection. Plasma is immediately obtained from a 2 mL blood aliquot to use as blank (basal levels of PGE2).

[3] = target: T2, COX-2; experiment: Whole cell assay for COX-2 using CHO transfected cell line CHO[hCOX-2], inhibition of PGE2 synthesis; format: cell-based; details: CHO[hCOX-2] cells, 10 μM AA, PGE2; read-out: COX-2 (IC50 mM) CHO
Source text: Whole cell assays for COX-2 and COX-1 using CHO transfected cell lines
Chinese hamster ovary (CHO) cell lines which have been stably transfected with an eukaryotic expression vector pCDNAIII containing either the human COX-1 or COX-2 cDNA's are used for the assay. These cell lines are referred to as CHO [hCOX-1] and CHO [hCOX-2], respectively. For cyclooxygenase assays, CHO[hCOX-1] cells from suspension cultures and CHO[hCOX-2] cells prepared by trypsinization of adherent cultures are harvested by centrifugation (300×g, 10 min) and washed once in HBSS containing 15 mM HEPES, pH 7.4, and resuspended in HBSS, 15 mM HEPES, pH 7.4, at a cell concentration of 1.5×10^6 cells/ml. Drugs to be tested are dissolved in DMSO to 66.7-fold the highest test drug concentration. […] Cells (0.3×10^6 cells in 200 μl) are preincubated with 3 μl of the test drug or DMSO vehicle for 15 min at 37° C. Working solutions of peroxide-free AA (5.5 μM and 110 μM AA for the CHO [hCOX-1] and CHO [COX-2] assays, respectively) are prepared by a 10-fold dilution of a concentrated AA solution in ethanol into HBSS containing 15 mM HEPES, pH 7.4. Cells are then challenged in the presence or absence of drug with the AA/HBSS solution to yield a final concentration of 0.5 μM AA in the CHO[hCOX-1] assay and a final concentration of 10 μM AA in the CHO[hCOX-2] assay. The reaction is terminated by the addition of 10 μl 1 N HCl followed by neutralization with 20 μl of 0.5 N NaOH. The samples are centrifuged at 300×g at 4° C. for 10 min, and an aliquot of the clarified supernatant is appropriately diluted for the determination of PGE2 levels using an enzyme-linked immunoassay for PGE2 (Correlate PGE2 enzyme immunoassay kit, Assay Designs, Inc.). Cyclooxygenase activity in the absence of test compounds is determined as the difference in PGE2 levels of cells challenged with arachidonic acid versus the PGE2 levels in cells mock-challenged with ethanol vehicle. Inhibition of PGE2 synthesis by test compounds is calculated as a percentage of the activity in the presence of drug versus the activity in the positive control samples.

[4] = target: T1, COX-1; experiment: Assay of COX-1 activity from U937 cell microsomes; format: biochemical; design: Assay of COX-1 Activity from U937 cell microsomes; endogenous in cells; host or cells: U937 cells, 100,000×g microsomal pellet; details: U937 cell microsomes, PGE2; read-out: COX-1 (IC50 mM) U-937
Description: Assay of COX-1 Activity from U937 cell microsomes
U 937 cells are pelleted by centrifugation at 500×g for 5 min and washed once with phosphate-buffered saline and repelleted. Cells are resuspended in homogenization buffer consisting of 0.1 M Tris-HCl, pH 7.4, 10 mM EDTA, 2 μg/ml leupeptin, 2 μg/ml soybean trypsin inhibitor, 2 μg/ml aprotinin and 1 mM phenyl methyl sulfonyl fluoride. The cell suspension is sonicated 4 times for 10 sec and is centrifuged at 10,000×g for 10 min at 4° C. The supernatant is centrifuged at 100,000×g for 1 hr at 4° C. The 100,000×g microsomal pellet is resuspended in 0.1 M Tris-HCl, pH 7.4, 10 mM EDTA to approximately 7 mg protein/ml and stored at -80° C.
Microsomal preparations are thawed immediately prior to use, subjected to a brief sonication, and then diluted to a protein concentration of 125 μg/ml in 0.1 M Tris-HCl buffer, pH 7.4 containing 10 mM EDTA, 0.5 mM phenol, 1 mM reduced glutathione and 1 μM hematin. Assays are performed in duplicate in a final volume of 250 μl. Initially, 5 μl of DMSO vehicle or drug in DMSO are added to 20 μl of 0.1 M Tris-HCl buffer, pH 7.4 containing 10 mM EDTA in wells of a 96-deepwell polypropylene titre plate. 200 μl of the microsomal preparation are then added and pre-incubated for 15 min at room temperature before addition of 25 μl of […] arachidonic acid in […] Tris-HCl and 10 mM EDTA, pH 7.4. Samples are incubated for 40 min at room temperature and the reaction is stopped by the addition of 25 μl of 1 N HCl. Samples are neutralized with 25 μl of 1 N NaOH prior to quantitation of PGE2 content by radioimmunoassay (Dupont-NEN or Amersham assay kits). Cyclooxygenase activity is defined as the difference between PGE2 levels in samples incubated in the presence of arachidonic acid and ethanol vehicle.
In the assay, inhibition is determined by measuring the amount of prostaglandin E2 (PGE2) synthesized in the presence of arachidonic acid, cyclooxygenase-1 or cyclooxygenase-2 and a putative inhibitor.

SMILES	IC50 [1] [mM]	IC50 [2] [mM]	IC50 [3] [µM]	IC50 [4] [mM]
CS(=O)(=O)c1ccc(-c2cc(C(F)(F)F)cnc2N2CCCCC2)cc1 [Example 2, 3-(4-Methylsulfonyl)phenyl-2-piperidin-1-yl-5-trifluoromethylpyridine]	> 0.1	0.0003	0.004	0.003
CS(=O)(=O)c1ccc(-c2cc(C(F)(F)F)cnc2N2CCC(F)(F)CC2)cc1 [Example 24, 2-(4,4-Difluoro)piperidin-1-yl-3-(4-methylsulfonyl)phenyl-5-trifluoromethylpyridine]		0.0103	0.02	> 0.01
CS(=O)(=O)c1ccc(-c2cc(C(F)(F)F)cnc2N2CCCC(F)(F)C2)cc1 [Example 25, 2-(3,3-Difluoro)piperidin-1-yl-3-(4-methylsulfonyl)phenyl-5-trifluoromethylpyridine]		0.0047	0.08	> 0.01
CS(=O)(=O)c1ccc(-c2cc(C(F)(F)F)cnc2N2CCC(F)CC2)cc1 [Example 26, 2-(4-Fluoro)piperidin-1-yl-3-(4-methylsulfonyl)phenyl-5-trifluoromethylpyridine]		0.0017	0.01	0.003 to 0.01
CS(=O)(=O)c1ccc(-c2cc(C(F)(F)F)cnc2N2CCOCC2)cc1 [Example 27, 3-(4-Methylsulfonyl)phenyl-2-morpholin-4-yl-5-trifluoromethylpyridine]		0.0036	0.06	> 0.01
CS(=O)(=O)c1ccc(-c2cc(C(F)(F)F)cnc2N2CCSCC2)cc1 [Example 28, 3-(4-Methylsulfonyl)phenyl-2-thiomorpholin-4-yl-5-trifluoromethylpyridine]		0.0014	0.03	0.003 to 0.01
